Active and inactive are the calls of the source.
Legend:
Type in all cases: functional
[1] = target: T1, Orexin/Hypocretin receptor type 1 (Homo sapiens, UniProt O43613); assay: Homogeneous Time Resolved Fluorescence (HTRF)-based cell-based high throughput dose response assay for antagonists of the orexin 1 receptor (OX1R; HCRTR1). [Related pubchem assays (depositor defined):AID434989, AID435008, AID463079, AID485270, AID492963, AID492964, AID492965, AID493232, AID504717, AID504718]
Orexin receptor type 2 [2] = target: T2, Orexin receptor type 2 (Homo sapiens, UniProt O43614); assay: Counterscreen assay for antagonists of the orexin 1 receptor (OX1R; HCRTR1): Fluorescence-based cell-based dose response assay for antagonists of the orexin 2 receptor (OX2R; HCRTR2), run by assay provider.
[3] = target: T1, Orexin/Hypocretin receptor type 1; assay: Fluorescence-based cell-based high throughput dose response assay for antagonists of the orexin 1 receptor (OX1R; HCRTR1). [Related pubchem assays (depositor defined):AID434989, AID435008, AID463079, AID485270, AID492963, AID492964, AID492965, AID493232, AID504717, AID504718]
Orexin receptor type 2 [4] = target: T2, Orexin receptor type 2; assay: Counterscreen assay for antagonists of the orexin 1 receptor (OX1R; HCRTR1): Homogeneous Time Resolved Fluorescence (HTRF)-based cell-based dose response assay for antagonists of the orexin 2 receptor (OX2R; HCRTR2), run by assay provider.
[5] = (§1) Counterscreen for antagonists of the orexin 1 receptor (OX1R; HCRTR1): Fluorescence-based cell-based high throughput dose response assay to identify antagonists of the parental CHO cell line. [Related pubchem assays (depositor defined):AID434989, AID435008, AID463079, AID485270, AID492963, AID492964, AID492965, AID493232, AID504699, AID504701]
CHO-K1 = assay: as §1, with “Homogeneous time resolved fluorescence (HTRF)-based” for “Fluorescence-based”, “cell-based” for “cell-based high throughput”, “CHO-K1” for “CHO”; conditions: Cricetulus griseus;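 note: potency for inhibition of ATP-stimulated IP1 production as antagonists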
[6] = target: cAMP-dependent protein kinase catalytic subunit alpha (Homo sapiens, UniProt P17612)
Aurora kinase B = Aurora kinase B (Homo sapiens, UniProt Q96GD4)
[7] = target: Cyclin-dependent kinase 1 (Homo sapiens, UniProt P06493);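 note: Kinome-wide panel profiling, with the target listed as panel member CDC2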
[8] = target: Dual specificity protein kinase CLK4 (Homo sapiens, UniProt Q9HAZ1)
[9] = target: Mitogen-activated protein kinase 1 (Homo sapiens, UniProt P28482)
[10] = target: Mitogen-activated protein kinase 13 (Homo sapiens, UniProt O15264)
[11] = target: Leucine-rich repeat serine/threonine-protein kinase 2 (Homo sapiens, UniProt Q5S007);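 note: value from a broad kinome-wide panel profiling study in which LRRK2 was one of the kinases tested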
[12] = target: Proto-oncogene tyrosine-protein kinase ROS (Homo sapiens, UniProt P08922);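 note: ROS1 tested as one member of a kinome-wide kinase panel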
[13] = target: Tyrosine-protein kinase Lyn (Homo sapiens, UniProt P07948);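 note: lyn as one member of a kinase panel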
[14] = target: Tyrosine-protein kinase ITK/TSK (Homo sapiens, UniProt Q08881);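 note: affinity for ITK measured as one member of a broad kinase panel profiling binding across the kinome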
[15] = target: Vascular endothelial growth factor receptor 2 (Homo sapiens, UniProt P35968)
Aurora kinase A = Aurora kinase A (Homo sapiens, UniProt O14965);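 note: value from the Navigating the Kinome kinase panel profiling, panel entry STK6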
[16] = target: Dual specificity tyrosine-phosphorylation-regulated kinase 1B (Homo sapiens, UniProt Q9Y463); assay: Navigating the Kinome. Panel member name: DYRK1B
[17] = target: Serine/threonine-protein kinase PAK 4 (Homo sapiens, UniProt O96013);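 note: value obtained within a kinome profiling panel in which PAK4 was one of the panel members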
[18] = target: MAP/microtubule affinity-regulating kinase 3 (Homo sapiens, UniProt P27448);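 note: MARK3 affinity measured as one member of a kinome panel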
[19] = target: Tyrosine-protein kinase JAK2 (Homo sapiens, UniProt O60674);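 note: JAK2 tested as one member of a kinase panel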
[20] = target: Tyrosine-protein kinase Blk (Homo sapiens, UniProt P51451);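 note: obtained as one member of a kinome-wide kinase assay panel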
[21] = target: Serine/threonine-protein kinase D2 (Homo sapiens, UniProt Q9BZL6);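 note: measured against PRKD2 as one member of a kinome-wide kinase profiling panel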
[22] = target: Tyrosine-protein kinase Fyn (Homo sapiens, UniProt P06241)
[23] = target: Tyrosine-protein kinase ABL1 (Homo sapiens, UniProt P00519)
[24] = target: Serine/threonine-protein kinase pim-2 (Homo sapiens, UniProt Q9P1W9);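 note: value comes from a broad kinase panel profiling study in which PIM2 was one of the panel members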
[25] = target: Receptor tyrosine-protein kinase erbB-2 (Homo sapiens, UniProt P04626); assay: Navigating the Kinome. Panel member name: ERBB2
Activin receptor type-1 = Activin receptor type-1 (Homo sapiens, UniProt Q04771); assay: Navigating the Kinome. Panel member name: ACVR1
[26] = target: Tyrosine-protein kinase JAK3 (Homo sapiens, UniProt P52333)
[27] = target: Dual specificity tyrosine-phosphorylation-regulated kinase 1A (Homo sapiens, UniProt Q13627);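 note: measured against DYRK1A as one member of a broad kinome profiling panel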
[28] = target: Vascular endothelial growth factor receptor 1 (Homo sapiens, UniProt P17948);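 note: measured within a kinome-wide profiling panel, FLT1 as the panel member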
[29] = target: Insulin-like growth factor 1 receptor (Homo sapiens, UniProt P08069); assay: Navigating the Kinome. Panel member name: IGF1R
[30] = target: Fibroblast growth factor receptor 3 (Homo sapiens, UniProt P22607)
[31] = target: Calcium/calmodulin-dependent protein kinase type II subunit delta (Homo sapiens, UniProt Q13557)
[32] = target: Serine/threonine-protein kinase TAO1 (Homo sapiens, UniProt Q7L7X3)
[33] = target: Calcium/calmodulin-dependent protein kinase type II subunit beta (Homo sapiens, UniProt Q13554)
[34] = target: Receptor-type tyrosine-protein kinase FLT3 (Homo sapiens, UniProt P36888);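 note: FLT3 was tested as one member of a kinome-wide kinase panel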
[35] = target: Calcium/calmodulin-dependent protein kinase type II subunit gamma (Homo sapiens, UniProt Q13555)
[36] = target: Mitogen-activated protein kinase kinase kinase kinase 4 (Homo sapiens, UniProt O95819)
SRSF protein kinase 1 = SRSF protein kinase 1 (Homo sapiens, UniProt Q96SB4);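 note: measured as one member of a kinome-wide kinase profiling panel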

Chain of Leucine-rich repeat serine/threonine-protein kinase 2 (Q5S007 whole entry): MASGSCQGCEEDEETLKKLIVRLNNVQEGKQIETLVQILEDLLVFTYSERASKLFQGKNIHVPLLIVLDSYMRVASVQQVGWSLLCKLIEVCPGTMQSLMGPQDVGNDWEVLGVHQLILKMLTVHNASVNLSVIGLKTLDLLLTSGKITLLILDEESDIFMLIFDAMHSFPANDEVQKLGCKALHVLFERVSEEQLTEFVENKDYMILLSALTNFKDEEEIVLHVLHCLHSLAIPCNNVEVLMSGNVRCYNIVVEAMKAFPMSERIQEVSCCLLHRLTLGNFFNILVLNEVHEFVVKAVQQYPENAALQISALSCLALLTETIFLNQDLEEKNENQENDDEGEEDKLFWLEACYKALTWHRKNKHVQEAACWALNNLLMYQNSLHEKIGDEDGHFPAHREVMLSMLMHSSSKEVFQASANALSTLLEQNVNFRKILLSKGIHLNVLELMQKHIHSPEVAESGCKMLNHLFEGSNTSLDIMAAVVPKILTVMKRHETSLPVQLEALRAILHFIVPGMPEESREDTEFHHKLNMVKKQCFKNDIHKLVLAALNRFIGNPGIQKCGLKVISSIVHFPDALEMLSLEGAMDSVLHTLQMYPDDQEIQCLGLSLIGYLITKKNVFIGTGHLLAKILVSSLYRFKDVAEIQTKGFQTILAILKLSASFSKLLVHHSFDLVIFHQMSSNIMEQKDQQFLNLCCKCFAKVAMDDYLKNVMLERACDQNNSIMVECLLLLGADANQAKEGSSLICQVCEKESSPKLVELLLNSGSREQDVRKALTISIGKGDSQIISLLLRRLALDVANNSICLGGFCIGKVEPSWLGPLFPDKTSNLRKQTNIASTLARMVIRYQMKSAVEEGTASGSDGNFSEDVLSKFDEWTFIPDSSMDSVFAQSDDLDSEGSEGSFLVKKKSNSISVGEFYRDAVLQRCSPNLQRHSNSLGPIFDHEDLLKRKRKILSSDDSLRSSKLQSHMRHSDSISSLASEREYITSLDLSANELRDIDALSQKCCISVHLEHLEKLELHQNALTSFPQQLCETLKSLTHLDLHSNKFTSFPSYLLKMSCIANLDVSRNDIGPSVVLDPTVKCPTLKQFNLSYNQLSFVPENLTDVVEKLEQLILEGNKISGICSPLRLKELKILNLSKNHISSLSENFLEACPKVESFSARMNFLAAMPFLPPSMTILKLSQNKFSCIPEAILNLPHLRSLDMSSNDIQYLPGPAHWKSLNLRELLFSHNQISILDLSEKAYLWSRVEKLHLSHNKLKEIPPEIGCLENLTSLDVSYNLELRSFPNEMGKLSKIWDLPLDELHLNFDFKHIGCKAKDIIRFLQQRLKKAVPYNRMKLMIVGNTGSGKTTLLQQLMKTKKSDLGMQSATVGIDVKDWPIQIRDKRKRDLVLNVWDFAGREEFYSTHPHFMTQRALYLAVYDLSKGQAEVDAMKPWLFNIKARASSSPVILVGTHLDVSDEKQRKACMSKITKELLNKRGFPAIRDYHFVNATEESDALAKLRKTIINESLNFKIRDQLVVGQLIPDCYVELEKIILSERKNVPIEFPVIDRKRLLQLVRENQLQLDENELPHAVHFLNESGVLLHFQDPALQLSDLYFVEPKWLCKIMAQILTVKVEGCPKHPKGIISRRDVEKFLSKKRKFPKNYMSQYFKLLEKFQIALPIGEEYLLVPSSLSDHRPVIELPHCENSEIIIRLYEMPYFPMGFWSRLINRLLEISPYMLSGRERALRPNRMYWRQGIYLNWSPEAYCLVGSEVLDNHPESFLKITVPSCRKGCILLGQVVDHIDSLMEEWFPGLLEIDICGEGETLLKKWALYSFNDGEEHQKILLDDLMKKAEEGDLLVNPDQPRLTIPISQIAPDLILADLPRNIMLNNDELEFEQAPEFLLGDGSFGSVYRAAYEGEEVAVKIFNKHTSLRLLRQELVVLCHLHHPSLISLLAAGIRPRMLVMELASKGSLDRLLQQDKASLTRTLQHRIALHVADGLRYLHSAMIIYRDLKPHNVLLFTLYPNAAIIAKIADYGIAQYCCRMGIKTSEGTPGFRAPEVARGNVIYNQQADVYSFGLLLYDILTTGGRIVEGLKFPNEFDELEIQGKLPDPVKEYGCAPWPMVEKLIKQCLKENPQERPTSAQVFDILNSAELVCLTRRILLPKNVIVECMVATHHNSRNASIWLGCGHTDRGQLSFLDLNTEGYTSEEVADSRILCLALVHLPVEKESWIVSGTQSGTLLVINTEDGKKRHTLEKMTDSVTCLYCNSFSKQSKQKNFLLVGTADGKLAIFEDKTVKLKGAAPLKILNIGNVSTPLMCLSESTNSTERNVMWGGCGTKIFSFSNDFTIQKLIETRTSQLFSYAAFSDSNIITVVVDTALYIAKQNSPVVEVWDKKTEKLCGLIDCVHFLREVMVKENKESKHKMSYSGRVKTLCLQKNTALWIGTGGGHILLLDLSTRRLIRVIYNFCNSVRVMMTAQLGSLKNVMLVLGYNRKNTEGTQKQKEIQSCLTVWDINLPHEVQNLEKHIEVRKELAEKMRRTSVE
Chain of Aurora kinase B (Q96GD4 whole entry): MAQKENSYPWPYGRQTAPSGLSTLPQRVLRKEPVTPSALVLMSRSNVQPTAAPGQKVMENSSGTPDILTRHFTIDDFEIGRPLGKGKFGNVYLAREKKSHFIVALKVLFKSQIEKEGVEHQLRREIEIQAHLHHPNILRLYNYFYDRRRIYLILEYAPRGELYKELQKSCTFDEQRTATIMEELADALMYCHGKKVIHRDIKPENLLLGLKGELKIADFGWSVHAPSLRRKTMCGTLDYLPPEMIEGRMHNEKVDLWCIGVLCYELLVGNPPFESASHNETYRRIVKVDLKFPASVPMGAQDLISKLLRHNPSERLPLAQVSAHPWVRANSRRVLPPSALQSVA
T2 sequence (O43614 whole entry): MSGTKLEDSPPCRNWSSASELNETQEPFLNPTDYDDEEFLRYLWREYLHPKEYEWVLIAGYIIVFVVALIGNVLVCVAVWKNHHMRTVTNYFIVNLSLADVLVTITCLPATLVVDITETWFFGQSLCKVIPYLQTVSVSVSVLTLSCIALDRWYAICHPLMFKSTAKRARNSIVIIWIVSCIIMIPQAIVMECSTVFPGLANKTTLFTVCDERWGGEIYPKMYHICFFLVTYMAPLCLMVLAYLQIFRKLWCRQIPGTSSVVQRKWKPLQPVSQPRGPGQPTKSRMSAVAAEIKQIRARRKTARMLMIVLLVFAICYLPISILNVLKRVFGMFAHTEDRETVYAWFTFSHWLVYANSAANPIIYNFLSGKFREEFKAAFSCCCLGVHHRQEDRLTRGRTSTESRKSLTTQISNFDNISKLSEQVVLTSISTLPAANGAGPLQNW
Chain of Mitogen-activated protein kinase 13 (O15264 whole entry): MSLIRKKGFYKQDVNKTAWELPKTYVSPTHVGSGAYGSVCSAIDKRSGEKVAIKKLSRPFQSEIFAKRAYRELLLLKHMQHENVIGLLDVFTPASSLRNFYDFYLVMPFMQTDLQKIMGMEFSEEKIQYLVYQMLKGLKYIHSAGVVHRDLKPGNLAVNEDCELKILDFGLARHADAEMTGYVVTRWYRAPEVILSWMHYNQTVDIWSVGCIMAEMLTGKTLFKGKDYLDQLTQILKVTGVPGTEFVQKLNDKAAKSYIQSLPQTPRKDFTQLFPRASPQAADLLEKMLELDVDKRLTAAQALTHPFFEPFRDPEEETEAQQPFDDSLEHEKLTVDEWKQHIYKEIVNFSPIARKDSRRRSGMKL
T1 sequence (O43613 whole entry): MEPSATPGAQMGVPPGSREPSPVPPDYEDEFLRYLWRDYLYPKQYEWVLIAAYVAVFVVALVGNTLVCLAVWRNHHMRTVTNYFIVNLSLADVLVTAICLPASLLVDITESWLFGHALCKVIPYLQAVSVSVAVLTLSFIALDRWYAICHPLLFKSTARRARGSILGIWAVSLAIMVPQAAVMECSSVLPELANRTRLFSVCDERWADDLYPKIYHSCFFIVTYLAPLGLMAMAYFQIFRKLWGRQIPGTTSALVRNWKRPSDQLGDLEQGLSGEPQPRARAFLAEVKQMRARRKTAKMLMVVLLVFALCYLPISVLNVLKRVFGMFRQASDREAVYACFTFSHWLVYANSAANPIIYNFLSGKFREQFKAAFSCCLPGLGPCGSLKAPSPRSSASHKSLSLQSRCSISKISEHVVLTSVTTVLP
Chain of Serine/threonine-protein kinase D2 (Q9BZL6 whole entry): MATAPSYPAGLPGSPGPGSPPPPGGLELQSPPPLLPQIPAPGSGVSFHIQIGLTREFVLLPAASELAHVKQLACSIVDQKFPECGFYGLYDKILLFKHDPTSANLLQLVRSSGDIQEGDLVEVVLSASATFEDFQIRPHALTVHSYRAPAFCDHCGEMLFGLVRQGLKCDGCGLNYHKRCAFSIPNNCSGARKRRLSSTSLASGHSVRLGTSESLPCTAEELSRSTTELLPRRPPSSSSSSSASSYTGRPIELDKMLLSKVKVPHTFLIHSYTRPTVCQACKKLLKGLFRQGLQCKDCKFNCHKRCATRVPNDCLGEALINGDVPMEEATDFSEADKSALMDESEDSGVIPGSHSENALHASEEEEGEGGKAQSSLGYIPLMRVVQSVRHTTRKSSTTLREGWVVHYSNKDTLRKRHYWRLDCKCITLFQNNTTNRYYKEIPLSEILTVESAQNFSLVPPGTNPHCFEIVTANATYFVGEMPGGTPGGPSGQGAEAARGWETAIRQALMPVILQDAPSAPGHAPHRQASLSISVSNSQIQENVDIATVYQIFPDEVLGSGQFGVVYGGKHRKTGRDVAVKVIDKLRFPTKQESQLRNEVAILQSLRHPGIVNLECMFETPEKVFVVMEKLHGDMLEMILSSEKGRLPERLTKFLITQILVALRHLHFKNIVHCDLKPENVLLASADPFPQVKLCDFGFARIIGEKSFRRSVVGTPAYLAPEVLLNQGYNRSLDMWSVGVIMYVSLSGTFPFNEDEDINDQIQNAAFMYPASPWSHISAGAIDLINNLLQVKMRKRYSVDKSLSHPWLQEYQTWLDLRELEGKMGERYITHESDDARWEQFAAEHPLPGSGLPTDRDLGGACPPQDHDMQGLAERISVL

SMILES: CCSc1ccc([C@@H]2[C@H]3C(=O)N(CC)C(=O)[C@H]3[C@]3(C(=O)OC)CCCCN23)cc1OC
- IC50 [1]: 2650 nM (active)
- IC50 (Orexin receptor type 2 [2]): 6400 nM (active)
- IC50 [3]: 12400 nM (inactive)
- IC50 (Orexin receptor type 2 [4]): > 50000 nM (inactive)
- IC50 [5]: > 49800 nM (inactive)
- IC50 (CHO-K1): > 66300 nM (inactive)

SMILES: CN(c1ncccc1CNc1nc(Nc2ccc3c(c2)CC(=O)N3)ncc1C(F)(F)F)S(C)(=O)=O [PF-00562271]
- Ki [6]: 158 nM (active)
- Ki (Aurora kinase B): 63.1 nM (active)
- Ki [7]: 63.1 nM (active)
- Ki [8]: 63.1 nM (active)
- Ki [9]: 63.1 nM (active)
- Ki [10]: > 7940 nM (inactive)
- Ki [11]: 158 nM (active)
- Ki [12]: 12.6 nM (active)

SMILES: O=S(=O)(c1cccc2cnccc12)N1CCCNCC1 [FASUDIL]
- Ki [13]: > 1580 nM (inactive)
- Ki [14]: > 1580 nM (inactive)
- Ki [15]: > 2000 nM (inactive)
- Ki (Aurora kinase A): > 1580 nM (inactive)
- Ki [16]: > 1260 nM (inactive)
- Ki [17]: > 5010 nM (inactive)
- Ki [18]: > 5010 nM (inactive)
- Ki [19]: > 1580 nM (inactive)
- Ki [20]: > 1580 nM (inactive)
- Ki [21]: 1260 nM (active)
- pKi [21]: 5.9
- Ki [22]: > 794 nM (inactive)
- Ki [23]: > 631 nM (inactive)
- Ki [10]: > 7940 nM (inactive)
- Ki [24]: > 1580 nM (inactive)
- Ki [25]: > 1580 nM (inactive)
- Ki [11]: 2000 nM (active)
- pKi [11]: 5.7
- Ki (Activin receptor type-1): > 3980 nM (inactive)
- Ki [26]: > 1580 nM (inactive)
- Ki [27]: > 1260 nM (inactive)
- Ki [28]: > 398 nM (inactive)
- Ki [29]: > 1000 nM (inactive)
- Ki [30]: > 2000 nM (inactive)

SMILES: CCCCOc1ccc(C(C)(C)CC)cc1S(=O)(=O)Nc1ccc(-c2csc3ncnc(N)c23)cc1
- Ki [31]: 6310 nM (active)
- Ki [32]: 7940 nM (active)
- Ki (Aurora kinase B): 6310 nM (active)
- Ki [33]: 3980 nM (active)
- Ki [34]: 2000 nM (active)
- Ki [35]: 6310 nM (active)

SMILES: COc1cccc(-n2nc(C)c3c(=O)c4cc(Cl)ccc4n(O)c32)c1
- Ki (Aurora kinase B): 1260 nM (active)
- Ki [36]: 6310 nM (active)
- Ki (SRSF protein kinase 1): 7940 nM (active)

Source: ChEMBL document CHEMBL1201862, “PubChem BioAssay data set” (2004)
